In patent US20230265151A1, “GIP/GLP1 CO-AGONIST COMPOUNDS” (priority 2020, published 2023):

Experiments:
Format in all cases: cell-based
hGCGR = molecular target: T1, hGCGR (Homo sapiens, UniProt P47871); test: Functional cAMP formation (HTRF) in HEK-293 clonal cells expressing hGCGR, 0.1% bovine casein, without or with 1.0% human serum albumin; settings: hGCGR EC50, nM (SEM, n), cAMP, incubated at 37° C., 0.1% bovine casein (no human serum albumin); geometric mean
T1 construct: expressed in transfected cells
T1 sequence (P47871 26-477): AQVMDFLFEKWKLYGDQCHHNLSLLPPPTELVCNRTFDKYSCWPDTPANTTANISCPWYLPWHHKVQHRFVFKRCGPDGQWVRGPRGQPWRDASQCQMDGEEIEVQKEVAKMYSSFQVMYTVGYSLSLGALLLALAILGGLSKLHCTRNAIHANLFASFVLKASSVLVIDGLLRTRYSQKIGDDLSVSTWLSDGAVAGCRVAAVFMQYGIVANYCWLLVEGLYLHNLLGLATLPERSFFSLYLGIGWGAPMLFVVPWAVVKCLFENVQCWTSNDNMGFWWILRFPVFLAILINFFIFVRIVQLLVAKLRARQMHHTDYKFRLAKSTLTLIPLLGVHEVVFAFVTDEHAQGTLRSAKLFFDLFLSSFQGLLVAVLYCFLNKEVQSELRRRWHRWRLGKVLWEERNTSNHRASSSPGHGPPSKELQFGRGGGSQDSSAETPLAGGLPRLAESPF
Summary of the method: (§1)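 Cells were stimulated with peptide for 30 min at 37° C, then intracellular cAMP was measured by competitive HTRF (665/620 nm ratio) and converted to nM using a cAMP standard curve. Relative EC50 and Emax came from four-parameter logistic fits of percent maximal response against peptide concentration.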

hGLP-1R = hGLP-1R (Homo sapiens, UniProt P43220); test: Functional cAMP formation (HTRF) in HEK-293 clonal cells expressing hGLP-1R, 0.1% bovine casein, without or with 1.0% human serum albumin; design: expressed in transfected cells; settings: for Emax: HEK293, read-out: hGLP-1R Emax, % ± SEM, percent of maximal response to GLP-1(7-36)NH2, 37° C., 0.1% bovine casein, arithmetic mean; for EC50: hGLP-1R EC50, nM (SEM, n), cAMP, incubated at 37° C., 0.1% bovine casein (no human serum albumin), geometric mean
Sequence of hGLP-1R (P43220 24-463): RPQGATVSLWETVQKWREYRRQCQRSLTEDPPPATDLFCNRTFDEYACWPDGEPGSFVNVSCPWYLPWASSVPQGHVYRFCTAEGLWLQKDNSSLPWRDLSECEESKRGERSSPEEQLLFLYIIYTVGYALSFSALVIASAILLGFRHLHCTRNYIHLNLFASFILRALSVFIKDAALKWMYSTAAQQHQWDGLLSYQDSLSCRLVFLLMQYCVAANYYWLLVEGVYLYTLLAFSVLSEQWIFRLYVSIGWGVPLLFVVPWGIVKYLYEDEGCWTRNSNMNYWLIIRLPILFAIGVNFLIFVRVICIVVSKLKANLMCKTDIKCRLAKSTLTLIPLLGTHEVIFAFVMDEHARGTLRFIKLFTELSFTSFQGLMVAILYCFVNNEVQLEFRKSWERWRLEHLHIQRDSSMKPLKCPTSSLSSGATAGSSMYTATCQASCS
Summary of the method: as §1

hGIPR = molecular target: T2, hGIPR (Homo sapiens, UniProt P48546); test: Functional cAMP formation (HTRF) in HEK-293 clonal cells expressing hGIPR, 0.1% bovine casein, without or with 1.0% human serum albumin; settings: for EC50: hGIPR EC50, nM (SEM, n), cAMP, incubated at 37° C., 0.1% bovine casein (no human serum albumin), geometric mean; for Emax: HEK293, read-out: hGIPR Emax, % ± SEM, percent of maximal response to GIP(1-42)NH2, 37° C., 0.1% bovine casein, arithmetic mean
T2 construct: expressed in transfected cells
T2 sequence (P48546 22-466): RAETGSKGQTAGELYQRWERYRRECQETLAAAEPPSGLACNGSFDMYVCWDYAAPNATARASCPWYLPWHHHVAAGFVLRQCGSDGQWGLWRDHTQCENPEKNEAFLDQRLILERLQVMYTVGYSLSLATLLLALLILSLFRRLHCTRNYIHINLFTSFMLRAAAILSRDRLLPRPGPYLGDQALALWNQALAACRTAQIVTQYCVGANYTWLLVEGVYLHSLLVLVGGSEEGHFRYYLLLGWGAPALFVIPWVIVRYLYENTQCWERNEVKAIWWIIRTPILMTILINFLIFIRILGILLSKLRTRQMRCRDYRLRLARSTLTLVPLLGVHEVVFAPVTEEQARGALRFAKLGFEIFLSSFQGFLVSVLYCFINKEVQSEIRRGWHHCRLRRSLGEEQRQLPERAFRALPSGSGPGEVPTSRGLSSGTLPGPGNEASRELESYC
Summary of the method: as §1

Compound	EC50 (hGCGR)	Emax (hGLP-1R)	EC50 (hGLP-1R)	EC50 (hGIPR)	Emax (hGIPR)
CC[C@H](C)[C@H](NC(=O)[C@H](CC(C)C)NC(=O)[C@](C)(Cc1ccc(O)cc1)NC(=O)[C@H](CCCCNC(=O)COCCOCCNC(=O)COCCOCCNC(=O)CC[C@H](NC(=O)CCCCCCCCCCCCC(=O)O)C(=O)O)NC(=O)[C@@H](NC(=O)[C@H](Cc1ccccc1)NC(=O)[C@H](CCC(=O)O)NC(=O)C(C)(C)NC(=O)[C@H](CCC(N)=O)NC(=O)[C@H](C)NC(=O)[C@H](CCCCNC(=O)COCCOCCNC(=O)COCCOCCNC(=O)CC[C@H](NC(=O)CCCCCCCCCCCCC(=O)O)C(=O)O)NC(=O)[C@H](CCCN)NC(=O)[C@H](CC(=O)O)NC(=O)[C@H](CC(C)C)NC(=O)[C@](C)(CC(C)C)NC(=O)[C@@H](NC(=O)C(C)(C)NC(=O)[C@@H](NC(=O)[C@H](CC(=O)O)NC(=O)[C@H](CO)NC(=O)[C@@H](NC(=O)[C@](C)(Cc1ccccc1F)NC(=O)[C@@H](NC(=O)CNC(=O)[C@H](CCC(=O)O)NC(=O)C(C)(C)NC(=O)[C@@H](N)Cc1ccc(O)cc1)[C@@H](C)O)[C@@H](C)O)C(C)C)[C@@H](C)CC)[C@@H](C)CC)C(=O)N[C@@H](CCC(=O)O)C(=O)NCC(=O)NCC(=O)N1CCC[C@H]1C(=O)N[C@@H](CO)C(=O)N[C@@H](CO)C(=O)NCC(=O)N[C@@H](C)C(=O)N1CCC[C@H]1C(=O)N1CCC[C@H]1C(=O)N1CCC[C@H]1C(=O)N[C@@H](CO)C(N)=O [Example 115]	> 9950 nM	91.6%	0.16 nM	0.103 nM	
CC[C@H](C)[C@H](NC(=O)[C@H](CC(C)C)NC(=O)[C@](C)(Cc1ccc(O)cc1)NC(=O)[C@H](CCCCNC(=O)COCCOCCNC(=O)COCCOCCNC(=O)CC[C@H](NC(=O)CCCCCCCCCCCCC(=O)O)C(=O)O)NC(=O)[C@@H](NC(=O)[C@H](Cc1ccccc1)NC(=O)[C@H](CCC(=O)O)NC(=O)C(C)(C)NC(=O)[C@H](CCC(N)=O)NC(=O)[C@H](C)NC(=O)[C@H](CCCCNC(=O)COCCOCCNC(=O)COCCOCCNC(=O)CC[C@H](NC(=O)CCCCCCCCCCCCC(=O)O)C(=O)O)NC(=O)[C@H](CCCN)NC(=O)[C@H](CC(=O)O)NC(=O)[C@H](CC(C)C)NC(=O)[C@](C)(CC(C)C)NC(=O)[C@@H](NC(=O)[C@H](CO)NC(=O)C1(NC(=O)[C@H](CC(=O)O)NC(=O)[C@H](CO)NC(=O)[C@@H](NC(=O)[C@](C)(Cc2ccccc2F)NC(=O)[C@@H](NC(=O)CNC(=O)[C@H](CCC(=O)O)NC(=O)C(C)(C)NC(=O)[C@@H](N)Cc2ccc(O)cc2)[C@@H](C)O)[C@@H](C)O)CCCC1)[C@@H](C)CC)[C@@H](C)CC)C(=O)N[C@@H](CCC(=O)O)C(=O)NCC(=O)NCC(=O)N1CCC[C@H]1C(=O)N[C@@H](CO)C(=O)N[C@@H](CO)C(=O)NCC(=O)N[C@@H](C)C(=O)N1CCC[C@H]1C(=O)N1CCC[C@H]1C(=O)N1CCC[C@H]1C(=O)N[C@@H](CO)C(N)=O [Example 116]	> 9950 nM		0.197 nM		115%
CC[C@H](C)[C@H](NC(=O)[C@H](CC(C)C)NC(=O)[C@](C)(Cc1ccc(O)cc1)NC(=O)[C@H](CCCCNC(=O)COCCOCCNC(=O)COCCOCCNC(=O)CC[C@H](NC(=O)CCCCCCCCCCCCC(=O)O)C(=O)O)NC(=O)[C@@H](NC(=O)[C@](C)(Cc1ccccc1)NC(=O)[C@H](CCC(=O)O)NC(=O)C(C)(C)NC(=O)[C@H](CCC(N)=O)NC(=O)[C@H](C)NC(=O)[C@H](CCCCNC(=O)COCCOCCNC(=O)COCCOCCNC(=O)CC[C@H](NC(=O)CCCCCCCCCCCCC(=O)O)C(=O)O)NC(=O)[C@H](CCCN)NC(=O)[C@H](CC(=O)O)NC(=O)[C@H](CC(C)C)NC(=O)[C@](C)(CC(C)C)NC(=O)[C@@H](NC(=O)C(C)(C)NC(=O)[C@H](Cc1ccncc1)NC(=O)[C@H](CC(=O)O)NC(=O)[C@H](CO)NC(=O)[C@@H](NC(=O)[C@](C)(Cc1ccccc1F)NC(=O)[C@@H](NC(=O)CNC(=O)[C@H](CCC(=O)O)NC(=O)C(C)(C)NC(=O)[C@@H](N)Cc1ccc(O)cc1)[C@@H](C)O)[C@@H](C)O)[C@@H](C)CC)[C@@H](C)CC)C(=O)N[C@@H](CCC(=O)O)C(=O)NCC(=O)NCC(=O)N1CCC[C@H]1C(=O)N[C@@H](CO)C(=O)N[C@@H](CO)C(=O)NCC(=O)N[C@@H](C)C(=O)N1CCC[C@H]1C(=O)N1CCC[C@H]1C(=O)N1CCC[C@H]1C(=O)N[C@@H](CO)C(N)=O [Example 117]	> 9950 nM	98.2%			96.4%
CC[C@H](C)[C@H](NC(=O)[C@H](CC(C)C)NC(=O)[C@](C)(Cc1ccc(O)cc1)NC(=O)[C@H](CCCCNC(=O)COCCOCCNC(=O)COCCOCCNC(=O)CC[C@H](NC(=O)CCCCCCCCCCCCC(=O)O)C(=O)O)NC(=O)[C@@H](NC(=O)[C@](C)(Cc1ccccc1)NC(=O)[C@H](CCC(=O)O)NC(=O)C(C)(C)NC(=O)[C@H](CCC(N)=O)NC(=O)[C@H](C)NC(=O)[C@H](CCCCNC(=O)COCCOCCNC(=O)COCCOCCNC(=O)CC[C@H](NC(=O)CCCCCCCCCCCCC(=O)O)C(=O)O)NC(=O)[C@H](CCCN)NC(=O)[C@H](CC(=O)O)NC(=O)[C@H](CC(C)C)NC(=O)[C@](C)(CC(C)C)NC(=O)[C@@H](NC(=O)[C@H](CO)NC(=O)[C@@H](NC(=O)[C@H](CC(=O)O)NC(=O)[C@H](CO)NC(=O)[C@@H](NC(=O)[C@](C)(Cc1ccccc1F)NC(=O)[C@@H](NC(=O)CNC(=O)[C@H](CCC(=O)O)NC(=O)C(C)(C)NC(=O)[C@@H](N)Cc1ccc(O)cc1)[C@@H](C)O)[C@@H](C)O)C(C)C)[C@@H](C)CC)[C@@H](C)CC)C(=O)N[C@@H](CCC(=O)O)C(=O)NCC(=O)NCC(=O)N1CCC[C@H]1C(=O)N[C@@H](CO)C(=O)N[C@@H](CO)C(=O)NCC(=O)N[C@@H](C)C(=O)N1CCC[C@H]1C(=O)N1CCC[C@H]1C(=O)N1CCC[C@H]1C(=O)N[C@@H](CO)C(N)=O [Example 118]	> 9950 nM		0.437 nM	0.0547 nM	94.7%
CC[C@H](C)[C@H](NC(=O)[C@H](CC(C)C)NC(=O)[C@](C)(Cc1ccc(O)cc1)NC(=O)[C@H](CCCCNC(=O)COCCOCCNC(=O)COCCOCCNC(=O)CC[C@H](NC(=O)CCCCCCCCCCCCC(=O)O)C(=O)O)NC(=O)[C@@H](NC(=O)[C@](C)(Cc1ccccc1)NC(=O)[C@H](CCC(=O)O)NC(=O)C(C)(C)NC(=O)[C@H](CCC(N)=O)NC(=O)[C@H](C)NC(=O)[C@H](CCCCNC(=O)COCCOCCNC(=O)COCCOCCNC(=O)CC[C@H](NC(=O)CCCCCCCCCCCCC(=O)O)C(=O)O)NC(=O)[C@H](CCCN)NC(=O)[C@H](CC(=O)O)NC(=O)[C@H](CC(C)C)NC(=O)[C@](C)(CC(C)C)NC(=O)[C@@H](NC(=O)C(C)(C)NC(=O)[C@@H](NC(=O)[C@H](CC(=O)O)NC(=O)[C@H](CO)NC(=O)[C@@H](NC(=O)[C@](C)(Cc1ccccc1F)NC(=O)[C@@H](NC(=O)CNC(=O)[C@H](CCC(=O)O)NC(=O)C(C)(C)NC(=O)[C@@H](N)Cc1ccc(O)cc1)[C@@H](C)O)[C@@H](C)O)C(C)C)[C@@H](C)CC)[C@@H](C)CC)C(=O)N[C@@H](CCC(=O)O)C(=O)NCC(=O)NCC(=O)N1CCC[C@H]1C(=O)N[C@@H](CO)C(=O)N[C@@H](CO)C(=O)NCC(=O)N[C@@H](C)C(=O)N1CCC[C@H]1C(=O)N1CCC[C@H]1C(=O)N1CCC[C@H]1C(=O)N[C@@H](CO)C(N)=O [Example 119]	> 9950 nM	99.4%	0.351 nM	0.0863 nM	
